Measurements from patent publication US7429374B2, “Process for the measurement of the potency of glatiramer acetate” (Teva Pharmaceutical Industries, Ltd., priority 2001, dated 2008).

Columns and labels:
GA RS-specific T cells = assay: In vitro potency test: IL-2 secretion by GA RS-specific LN cells, ELISA, % potency relative to GA RS; type: cell-based, female (SJLXBALB/C)F1 mice; conditions: for Response of GA RS-specific T cells (IL-2 secretion), in words: primary culture of LN cells from mice immunized with 250 μg GA RS in CFA; for % Potency: specificity of GA RS-specific LN cells, antigens incubated overnight
Method: Mice were immunized with 250 μg GA RS in CFA. GA RS was produced as described in U.S. Pat. No. 5,800,808 or PCT International Publication No. WO 00/05250. The GA RS was chosen based on the chemical and biological properties being in the midrange of Copaxone® as described above. After 9-11 days, a primary culture of LN cells was prepared, and the cells were incubated with various concentrations of GA RS and with test samples. Following 18-21 hours of incubation at 37° C. in a humidified CO2 incubator, the culture media were collected and the level of IL-2 was measured by ELISA. The T-cell response to each DS batch were tested at two concentrations (within the linear range), and the % potency of the DS batch was calculated relative to that of the GA RS batch.
The GA RS emulsion was transferred into an insulin syringe. Then, 100 μl of the emulsion (250 μg GA per mouse) were injected into four footpads of each naive mouse (about 25 μl into each footpad). The immunized mice were used for the in vitro test 9-11 days following immunization.
The UV lamp was turned on 20 minutes before commencing work in the laminar hood and turned off when work began. Prior to placing any reagents under the hood, the working surface was cleaned with a 70% ethanol solution. Enriched DCCM1 medium was prepared. The enriched DCCM1 and the RPMI medium were pre-warmed at 37° C. prior to use. The mice were sacrificed by cervical dislocation. Each mouse was placed on its back and fastened to a support platform. The abdomen was sprayed with 70% alcohol and a middle incision was made (a 2 cm-long incision was usually sufficient). The skin was intersected towards the hind legs and LN was located from the hind and forelegs. The LN was transferred into a sterile petri dish containing about 5 ml sterile RPMI medium and the LN cells were teased out by a sterile syringe plunger. The sterile syringe was used to collect the cells' suspension from the petri dish (the collection of tissue debris was avoided by using sterile needles). The cells' suspension were transferred into a 50 ml sterile tube.
The cells were centrifuged at 200×g for 10 minutes at room temperature. The cells were re-suspended to a density of 1×10^7 cells/ml with enriched DCCM1.
The in vitro bioassay was performed in a 24-well, flat-bottomed tissue culture test plate at a final volume of 1 ml.
About 10-20 mg of, GA DS from the batch to be tested was weighed accurately and dissolved with ddH2O to 1.2 mg/ml. The OD minus blank of the solution was measured at 275 nm. The OD of the sample was adjusted to approx. 1.03 with ddH2O to obtain a stock solution of 1 mg/ml of GA. The stock solution of 100 μg/ml was prepared with enriched DCCM1 and filtered through a 0.2μ cellulose acetate filter. The stock solution was diluted to 10 and 20 μg/ml as described in Table 2 for the RS batch.
0.5 ml of each GA RS dilution, thus the final concentrations of GA RS in the wells were 25, 15, 10, 5, 2.5 and 1 μg/ml.
0.5 ml of each sample dilution, thus the final concentrations of the test sample in the well were 5 and 10 μg/ml.
The density of the cells was changed depending upon their response to GA. The cultures were kept at 37° C. in a humidified 5% CO2 incubator for 18-21 hrs. The plate was centrifuged at 200×g for 10 minutes at room temperature. The supernatants were collected into cryotubes. The supernatants were divided into working aliquots to avoid repeated freezing/thawing of the samples. The supernatants were stored at −20° C. for up to one week. The hood was cleaned with 70% ethanol solution and dried with Kim wipes. The gloves were removed and the hands were immediately washed with disinfectant.
All samples were tested in triplicate. […]

[1] = system: exacerbating-remitting multiple sclerosis; conditions: daily subcutaneous injections (Johnson, 1987); cited from earlier work
EAE = conditions: 250 μg/mouse of GA in CFA; this mouse strain
Method: The control group in this experiment was injected with CFA alone. Ten days following immunization, LN cells were removed from the both groups of mice.

[2] = system: experimental autoimmune encephalomyelitis (EAE); conditions: various animal species (Lando et al., 1979; Aharoni, 1993); cited from earlier work

Molecule | Response of GA RS-specific T cells (IL-2 secretion), in words (GA RS-specific T cells) | progression of disability [1] | relapse rate [1] | blocking of EAE (EAE) | suppression of EAE [2] | % Potency (GA RS-specific T cells)
OC[C@@H](O)[C@@H](O)[C@H](O)[C@H](O)CO [mannitol] | did not affect or interfere |  |  |  |  | 
L-glutamic acid polymer with L-alanine, L-lysine and L-tyrosine, acetate (salt) [GA] |  | slow progression of disability | reduce the relapse rate | at least 80% | suppress | 
Lysozyme: a non-relevant basic protein | not recognized |  |  |  |  | 0%
MBP pp.87-99: the MBP immunodominant peptide pp. 87-99 (an encephalitogenic peptide) (SRPHLIRLFSRDA; UniProt P02686 87-99, looked up, fragment) | did not respond |  |  |  |  | 0%
Human MBP: human MBP (myelin basic protein) (protein, UniProt P02686 1-304, looked up) Myelin basic protein: MGNHAGKRELNAEKASTNSETNRGESEKKRNLGELSRTTSEDNEVFGEADANQNNGTSSQDTAVTDSKRTADPKNAWQDAHPADPGSRPHLIRLFSRDAPGREDNTFKDRPSESDELQTIQEDSAATSESLDVMASQKRPSQRHGSKYLATASTMDHARHGFLPRHRDTGILDSIGRFFGGDRGAPKRGSGKDSHHPARTAHYGSLPQKSHGRTQDENPVVHFFKNIVTPRTPPPSQGKGRGLSLSRFSWGAEGQRPGFGYGGRASDYKSAHKGFKGVDAQGTLSKIFKLGGRDSRSGSPMARR | did not respond |  |  |  |  | 0%
